Laboratory results reported in US20240158446A1, “CYCLIC COMPOUND HAVING SELECTIVE INHIBITORY ACTION ON KRAS OVER HRAS AND NRAS” (CHUGAI SEIYAKU KABUSHIKI KAISHA, priority 2021, published 2024).
Where two headings read alike, the source gives them in different places. *1 amine or outer side, *2 acyl side, *3 side chain or, on linkers, in order; H or OH if unused. Where a SMILES comes first, the peptide text is derived from it. Bridges are numbered along the chain shown (N, C = ends). [ ]: non-standard residue; d: D form. The star is where a group is joined. hPhe(3-Cl-4-CF3) = N[C@@H](CCc1ccc(C(F)(F)F)c(Cl)c1)C(=O)O; NPrPhe(4-CF3) = CCCN[C@@H](Cc1ccc(C(F)(F)F)cc1)C(=O)O; X15 = Cc1ccc(C[C@@H](C(=O)[*:2])N(CCC(C)C)[*:1])cc1; X21 = Cc1ccc(C[C@@H](C(=O)[*:2])N(CC2CC2)[*:1])cc1; NMeGly(cPent) = CN[C@H](C(=O)O)C1CCCC1; NMeD = CN[C@@H](CC(=O)O)C(=O)O; NMeL = CN[C@@H](CC(C)C)C(=O)O; Morpholide = C1CN(*)CCO1; NMeA = CN[C@@H](C)C(=O)O; Ac5c = NC1(C(=O)O)CCCC1; Aze = O=C(O)[C@@H]1CCN1; NPrGly = CCCNCC(=O)O; Sar = CNCC(=O)O

Experiments:
[1] = target: GDP-bound KRAS wild-type protein (Homo sapiens, UniProt P01116); assay: Binding to KRAS by surface plasmon resonance (SPR), Single Cycle Kinetics; details: GDP-bound KRAS wild-type protein, read-out: KRAS KD
GDP-bound KRAS wild-type protein, sequence (P01116 whole entry): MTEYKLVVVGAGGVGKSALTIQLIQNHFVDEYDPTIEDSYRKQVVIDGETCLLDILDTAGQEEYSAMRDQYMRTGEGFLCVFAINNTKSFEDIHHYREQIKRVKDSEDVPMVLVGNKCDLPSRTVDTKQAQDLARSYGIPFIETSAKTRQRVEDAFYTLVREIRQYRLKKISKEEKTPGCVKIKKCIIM

[2] = target: GDP-bound HRAS wild-type protein (Homo sapiens, UniProt P01112); assay: Binding to HRAS by surface plasmon resonance (SPR), Single Cycle Kinetics; details: for HRAS/KRAS (ratio of KD value with respect to GDP-bound HRAS wild-type protein to KD value with respect to KRAS): SPR KD ratio HRAS/KRAS, class symbols; for HRAS/KRAS (ratio of KD value for HRAS to KD value for KRAS) / HRAS/KRAS (ratio of KD value with respect to HRAS to KD value with respect to KRAS): SPR, GDP-bound HRAS wild-type protein vs GDP-bound KRAS wild-type protein
GDP-bound HRAS wild-type protein, sequence (P01112 whole entry): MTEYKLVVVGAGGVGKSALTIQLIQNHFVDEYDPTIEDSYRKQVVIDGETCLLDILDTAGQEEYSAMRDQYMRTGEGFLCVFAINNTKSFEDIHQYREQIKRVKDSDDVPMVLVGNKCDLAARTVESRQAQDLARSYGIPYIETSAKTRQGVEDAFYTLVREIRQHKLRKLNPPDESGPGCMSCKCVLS

[3] = target: GDP-bound NRAS wild-type protein (Homo sapiens, UniProt P01111); assay: Binding to NRAS by surface plasmon resonance (SPR), Single Cycle Kinetics; details: for NRAS/KRAS (ratio of KD value with respect to GDP-bound NRAS wild-type protein to KD value with respect to KRAS): SPR KD ratio NRAS/KRAS, class symbols; for NRAS/KRAS (ratio of KD value for NRAS to KD value for KRAS) / NRAS/KRAS (ratio of KD value with respect to NRAS to KD value with respect to KRAS): SPR, GDP-bound NRAS wild-type protein vs GDP-bound KRAS wild-type protein
GDP-bound NRAS wild-type protein, sequence (P01111 whole entry): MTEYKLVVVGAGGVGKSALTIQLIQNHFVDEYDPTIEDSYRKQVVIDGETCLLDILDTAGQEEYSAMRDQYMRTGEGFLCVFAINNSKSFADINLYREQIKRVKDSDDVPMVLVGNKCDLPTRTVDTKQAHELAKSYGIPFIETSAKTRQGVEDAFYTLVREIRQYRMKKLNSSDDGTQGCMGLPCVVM

[4] = SPR Single Cycle Kinetics, 1:1 binding model

SMILES	Kd [1, 4] [nM]	Kd ([1]; SPR, Single Cycle Kinetics) [nM]	HRAS/KRAS (ratio of KD value for HRAS to KD value for KRAS) [2]	NRAS/KRAS (ratio of KD value for NRAS to KD value for KRAS) [3]	also measured
CCO[C@@H]1C[C@H]2C(=O)NC3(CCC3)C(=O)N(C)[C@@H](C(CC)CC)C(=O)N(C)[C@H](C(=O)N3CCCC3)CC(=O)N(C)[C@H]3CCC/C=C/c4ccc(cc4)C[C@@H](C(=O)N(C)CC(=O)N[C@@H](CCc4cc(F)c(C(F)(F)F)c(F)c4)C(=O)N2C1)N1CC/C=C\C[C@@H](C1=O)N(C)C(=O)CN(C1CC1)C(=O)[C@H]([C@@H](C)CC)NC3=O [PP2957]	0.23				HRAS/KRAS (ratio of KD value with respect to GDP-bound HRAS wild-type protein to KD value with respect to KRAS) [2]: A (a compound having 10 or more and less than 20 is denoted as A); NRAS/KRAS (ratio of KD value with respect to GDP-bound NRAS wild-type protein to KD value with respect to KRAS) [3]: AA (a compound having 20 or more is denoted as AA)
CCO[C@@H]1C[C@H]2C(=O)NC3(CC(C)(C)C3)C(=O)N(C)[C@@H](C(CC)CC)C(=O)N(C)C(C(C)C)CC(=O)N(C)[C@@H](CC3CC3)C(=O)N[C@@H]([C@@H](C)CC)C(=O)N(C)CC(=O)N(C)[C@H]3C/C=C\CCN(C3=O)[C@@H](Cc3ccc(C(F)(F)F)cc3)C(=O)N(C)CC(=O)N[C@@H](CCc3cc(F)c(C(F)(F)F)c(F)c3)C(=O)N2C1 (stereo partly drawn) [PP1593]					Kd ([1]; SPR, Single Cycle Kinetics, 1:1 binding model): 4.3 nM; HRAS/KRAS (ratio of KD value for HRAS to KD value for KRAS) ([2]; KD ratio class): A (a compound having 10 or more and less than 20 is denoted as A); NRAS/KRAS (ratio of KD value for NRAS to KD value for KRAS) ([3]; KD ratio class): A (a compound having 10 or more and less than 20 is denoted as A)
CCO[C@@H]1C[C@H]2C(=O)NC3(CCCC3)C(=O)N(C)[C@@H](C3CCCC3)C(=O)N(C)[C@H](C(=O)N(C)C)CC(=O)N(C)[C@@H](CC(C)C)C(=O)N[C@@H]([C@@H](C)CC)C(=O)N(C)CC(=O)N(C)[C@H]3C[C@@H](C)CCN(C3=O)[C@@H](Cc3ccc(C(F)(F)F)cc3)C(=O)N(C)CC(=O)N[C@@H](CCc3cc(F)c(C(F)(F)F)c(F)c3)C(=O)N2C1 [PP1017]		0.048	B (a compound having 3 or more and less than 10 is denoted as B)	C (A compound having a KD ratio of 0.1 or more and less than 3 is denoted as C)	
CC[C@H](C)[C@@H]1NC(=O)[C@H](CC(C)C)N(C)C(=O)C[C@@H](C(=O)N2CCOCC2)N(C)C(=O)[C@H](C2CCCC2)N(C)C(=O)C2(CCC2)NC(=O)[C@@H]2C[C@@H](OCC3CC3)CN2C(=O)[C@H](CCc2cc(F)c(C(F)(F)F)c(F)c2)NC(=O)CN(C)C(=O)[C@H](Cc2ccc(C(F)(F)F)cc2)N2CCCCC[C@@H](C2=O)N(C)C(=O)CN(C)C1=O [PP1005]		1.1	A (a compound having 10 or more and less than 20 is denoted as A)	A (a compound having 10 or more and less than 20 is denoted as A)	
CC[C@H](C)[C@@H]1NC(=O)[C@H](CC)N(C)C(=O)C[C@@H](C(=O)N(C)C)N(CC)C(=O)[C@H](C2CCCC2)N(C)C(=O)C2(CCC2)NC(=O)[C@@H]2C[C@@H](N3CCC(F)(F)CC3)CN2C(=O)[C@H](CCc2cc(F)c(C(F)(F)F)c(F)c2)NC(=O)CN(C)C(=O)[C@H](Cc2ccc(C(F)(F)F)cc2)N2CCCC[C@@H](C2=O)N(C)C(=O)CN(C)C1=O [PP0733]	0.77				HRAS/KRAS (ratio of KD value with respect to HRAS to KD value with respect to KRAS) [2]: B (a compound having 3 or more and less than 10 is denoted as B); NRAS/KRAS (ratio of KD value with respect to NRAS to KD value with respect to KRAS) [3]: B (a compound having 3 or more and less than 10 is denoted as B)
CCCOC[C@H]1C(=O)N[C@@H]([C@@H](C)CC)C(=O)N(C)CC(=O)N(C)[C@H]2C/C=C\CCN(C2=O)[C@@H](CC2CCC(F)(F)CC2)C(=O)N(C)CC(=O)N[C@@H](CCc2ccc(C(F)(F)F)c(OC)c2)C(=O)N2C[C@H](OCC)C[C@H]2C(=O)N(C)C2(CCC2)C(=O)N(C)[C@@H](C2CCCC2)C(=O)N(C)[C@H](C(=O)N(C)C)CC(=O)N1C [PP2350]		0.35	A (a compound having 10 or more and less than 20 is denoted as A)	A (a compound having 10 or more and less than 20 is denoted as A)	
CCO[C@@H]1C[C@H]2C(=O)NC3(CC(C)(C)C3)C(=O)N(C)[C@@H](CC3CCC3)C(=O)N(C)[C@H](C(=O)N(C)C)CC(=O)N(C)[C@@H](COC)C(=O)N[C@@H]([C@@H](C)CC)C(=O)N(C3CC3)CC(=O)N(C)[C@H]3C/C=C\CCN(C3=O)[C@@H](Cc3ccc(C(F)(F)F)cc3)C(=O)N(C)CC(=O)N[C@@H](CCc3ccc(C(F)(F)F)c(OC)c3)C(=O)N2C1 [PP2771]	2.2				HRAS/KRAS (ratio of KD value with respect to GDP-bound HRAS wild-type protein to KD value with respect to KRAS) [2]: A (a compound having 10 or more and less than 20 is denoted as A); NRAS/KRAS (ratio of KD value with respect to GDP-bound NRAS wild-type protein to KD value with respect to KRAS) [3]: AA (a compound having 20 or more is denoted as AA)
CCO[C@@H]1C[C@H]2C(=O)NC3(CCC3)C(=O)N(C)[C@@H](C(CC)CC)C(=O)N(C)[C@H](C(=O)N3CCCC3)CC(=O)N(C)[C@H]3CCCC/C=C/c4ccc(cc4)C[C@@H](C(=O)N(C)CC(=O)N[C@@H](CCc4ccc(Cl)c(Cl)c4)C(=O)N2C1)N1CC/C=C\C[C@@H](C1=O)N(C)C(=O)CN(C)C(=O)[C@H]([C@@H](C)CC)NC3=O [PP3047, (1S,7S,11R,13S,19S,22S,26S,29S,35S,37Z,47E)-7-[2-(3,4-dichlorophenyl)ethyl]-11-ethoxy-19-(1-ethylpropyl)-3,18,21,25,31,34-hexamethyl-29-[(1S)-1-methylpropyl]-22-(pyrrolidine-1-carbonyl)spiro[3,6,9,15,18,21,25,28,31,34,41-undecazapentacyclo[24.15.11.2^43,46.1^35,41.0^9,13]pentapentaconta-37,43(54),44,46(53),47-pentaene-16,1′-cyclobutane]-2,5,8,14,17,20,24,27,30,33,55-undecone]		0.18	A (a compound having 10 or more and less than 20 is denoted as A)	AA (a compound having 20 or more is denoted as AA)	

Further lines, with some results ahead:

Kd [1, 4] [nM]	Kd ([1]; SPR, Single Cycle Kinetics) [nM]	SMILES	HRAS/KRAS (ratio of KD value for HRAS to KD value for KRAS) [2]	NRAS/KRAS (ratio of KD value for NRAS to KD value for KRAS) [3]	also measured
0.029		CCO[C@@H]1C[C@H]2C(=O)NC3(CCC3)C(=O)N(C)[C@@H](C3CCCC3)C(=O)N(C)[C@H](C(=O)N3CCOCC3)CC(=O)N(C)[C@@H](CC(C)C)C(=O)N[C@@H]([C@@H](C)CC)C(=O)N(C)CC(=O)N(C)[C@H]3CCCCN(C3=O)[C@@H](Cc3ccc(C(F)(F)F)cc3)C(=O)N(C)CC(=O)N[C@@H](CCc3cc(F)c(C(F)(F)F)c(F)c3)C(=O)N2C1 [PP0578]			HRAS/KRAS (ratio of KD value with respect to HRAS to KD value with respect to KRAS) [2]: B (a compound having 3 or more and less than 10 is denoted as B); NRAS/KRAS (ratio of KD value with respect to NRAS to KD value with respect to KRAS) [3]: B (a compound having 3 or more and less than 10 is denoted as B)
0.42		CC[C@H](C)[C@@H]1NC(=O)[C@H](CC(C)C)N(C)C(=O)C[C@@H](C(=O)N2CCOCC2)N(C)C(=O)[C@H](C2CCCC2)N(C)C(=O)C2(CCCC2)NC(=O)[C@@H]2CCCN2C(=O)[C@H](CCc2ccc(C(F)(F)F)c(Cl)c2)NC(=O)CN(C)C(=O)[C@H](Cc2ccc(C)cc2)N(CC2CC2)C(=O)CN(C)C(=O)CN(C)C1=O [PP0064] ([NMeL]I[Sar][Sar][X21][Sar][hPhe(3-Cl-4-CF3)]P[Ac5c][NMeGly(cPent)][NMeD]-Morpholide; lactam N-11)	C (A compound having a KD ratio of 0.1 or more and less than 3 is denoted as C)	C (A compound having a KD ratio of 0.1 or more and less than 3 is denoted as C)	
0.26		CC[C@H](C)[C@@H]1NC(=O)[C@H](CC(C)C)N(C)C(=O)C[C@@H](C(=O)N2CCOCC2)N(C)C(=O)[C@H](C2CCCC2)N(C)C(=O)C2(CCCC2)NC(=O)[C@@H]2CCCN2C(=O)[C@H](CCc2ccc(C(F)(F)F)c(Cl)c2)NC(=O)CN(C)C(=O)[C@H](Cc2ccc(C)cc2)N(CCC(C)C)C(=O)[C@@H]2CCN2C(=O)[C@H](C)N(C)C1=O [PP0086] ([NMeL]I[NMeA][Aze][X15][Sar][hPhe(3-Cl-4-CF3)]P[Ac5c][NMeGly(cPent)][NMeD]-Morpholide; lactam N-11)	B (a compound having 3 or more and less than 10 is denoted as B)	C (A compound having a KD ratio of 0.1 or more and less than 3 is denoted as C)	
0.87		CCCN1CC(=O)NC2(CCCC2)C(=O)N(C)[C@@H](C2CCCC2)C(=O)N(C)[C@H](C(=O)N2CCOCC2)CC(=O)N(C)[C@@H](CC(C)C)C(=O)N[C@@H]([C@@H](C)CC)C(=O)N(C)CC(=O)N(C)CC(=O)N(CCC)[C@@H](Cc2ccc(C(F)(F)F)cc2)C(=O)N(C)CC(=O)N[C@@H](CCc2ccc(C(F)(F)F)c(Cl)c2)C1=O [PP0267] ([NMeL]I[Sar][Sar][NPrPhe(4-CF3)][Sar][hPhe(3-Cl-4-CF3)][NPrGly][Ac5c][NMeGly(cPent)][NMeD]-Morpholide; lactam N-11)	B (a compound having 3 or more and less than 10 is denoted as B)	B (a compound having 3 or more and less than 10 is denoted as B)	
